The text below walks through data of ChEMBL document CHEMBL3102738, “Synthesis and biological evaluation of nitric oxide-donating analogues of sulindac for prostate cancer treatment” (Bioorg Med Chem, 2014).

Series [1] deals with PC-3. Briefly: Cytotoxicity against human PC3 cells assessed as cell viability at 50 uM after 48 hrs by crystal violet method (reference value: 100.87 +/- 4.87%). It counts as functional. As to conditions: PC-3, 48 h, read-out: Activity.
Series [2] concerns PC-3. Briefly: Cytotoxicity against human PC3 cells at 0.05 to 0.5 uM after 72 hrs by crystal violet method.
Series [3] concerns PC-3. Briefly: Cytotoxicity against human PC3 cells assessed as cell viability at 50 uM after 72 hrs by crystal violet method (reference value: 95.69 +/- 7.66%). It counts as functional. As to conditions: PC-3, 72 h, read-out: Activity.
Series [4] relates to PC-3. Briefly: Cytotoxicity against human PC3 cells assessed as cell viability at 50 uM after 24 hrs by crystal violet method (reference value: 99.09 +/- 9.87%). The settings on record: PC-3, 24 h, read-out: Activity. It counts as functional.
Series [5] concerns PC-3. Briefly: Cytotoxicity against human PC3 cells after 72 hrs by crystal violet method. The class given is functional, cell-based. As to conditions: PC-3, 72 h.
Series [6] in a line: Induction of NO release in glutathione buffer at 400 uM after 1 hr by Griess assay relative to sulindac. It counts as physicochemical. A general note: Nitrite, measured by Griess reagent, commonly stands in for NO production.
The nature of series [7]: Induction of NO release in glutathione buffer assessed as nitrite level at 400 uM after 1 hr by Griess assay (reference value: 3.3 +/- 1.2 uM). The class given is physicochemical.
Series [8] concerns PC-3. Briefly: Cytotoxicity against human PC3 cells at 50 nM after 72 hrs by crystal violet method. The class given is functional, cell-based.
The test system of series [9] is PC-3. Briefly: Cytotoxicity against human PC3 cells assessed as cell viability at 500 nM after 72 hrs by crystal violet method. As to conditions: PC-3, 72 h, read-out: Activity. The class given is functional.

Calls of active or inactive are those of the source. The calls are words filed in the database; no cut-off is given here.

As for `CSc1ccc(/C=C2/C(C)=C(CC(=O)NCCOC(=O)/N=c3/c[n+](-c4ccccc4)[n-]o3)c3cc(F)ccc32)cc1`, the figures for the viability at 50 µM in series [1], in series [3] and in series [4] were 27.1%, 17.7% and 57.6%, respectively. The result in series [2] was inactive.

What is called IC50 is the midpoint of a concentration-inhibition curve. A lower IC50 goes with greater potency in that assay. Regarding `CC1=C(CC(=O)OCCOc2no[n+]([O-])c2S(=O)(=O)c2ccccc2)c2cc(F)ccc2/C1=C\c1ccc([S+](C)[O-])cc1` (configuration not stated), the viability at 50 µM in series [1], in series [3] and in [4] was 0% each time. In addition, inhibition in series [5] was half-maximal at 27.9 µM (IC50).

Turning to `CC1=C(CC(=O)/N=c2\c[n+](-c3ccccc3)[n-]o2)c2cc(F)ccc2/C1=C\c1ccc([S+](C)[O-])cc1` (configuration not stated), the viability at 50 µM in series [1] was 29.8%; in series [3] it was 20.6%; in series [4], 64.6%. Further, in series [2], the result was inactive.

Take `CC1=C(CC(=O)OCCCCCCOc2no[n+]([O-])c2S(=O)(=O)c2ccccc2)c2cc(F)ccc2/C1=C\c1ccc([S+](C)[O-])cc1` (configuration not stated): the viability at 50 µM in series [1], in series [3] and in series [4] was 0% throughout. Besides, the Activity in series [6] came to 13.6%; in series [7] it was 54.4 µM. Moreover, in series [5], the IC50 worked out at 6.1 µM. Also, the result in series [8] was Active.

In the case of `CSc1ccc(/C=C2/C(C)=C(CC(=O)OCCCCOc3no[n+]([O-])c3S(=O)(=O)c3ccccc3)c3cc(F)ccc32)cc1`, the viability at 50 µM in [1], in series [3] and in series [4] was 0% throughout. The Activity stood at 8.2% in [6] and 33 µM in series [7]. In addition, half-maximal inhibition in [5] (IC50) required 40.3 µM. Further, the viability at 0.5 µM in series [9] came to 9.17%.

As for `CC1=C(CC(=O)NCCNC(=O)/N=c2/c[n+](-c3ccccc3)[n-]o2)c2cc(F)ccc2/C1=C\c1ccc(S(C)(=O)=O)cc1`, the values for the viability at 50 µM in series [1], in [3] and in [4] were 58.2%, 55.5% and 86.1%, respectively. Moreover, the outcome in [2] was inactive.

For the compound `CC1=C(CC(=O)NCCNC(=O)/N=c2/c[n+](-c3ccccc3)[n-]o2)c2cc(F)ccc2/C1=C\c1ccc([S+](C)[O-])cc1` (configuration not stated), the viability at 50 µM in series [1] turned out to be 46.7%; in series [3], 36.3%; in [4], 74%. In series [2], the outcome was inactive.

Regarding `CSc1ccc(/C=C2/C(C)=C(CC(=O)OCCOc3no[n+]([O-])c3S(=O)(=O)c3ccccc3)c3cc(F)ccc32)cc1`, the viability at 50 µM in series [1], in series [3] and in series [4] was 0% throughout. Further, the Activity in [6] is 10.3%; in series [7] it was 41.1 µM. In series [5], it took 41.4 µM to reach half-maximal inhibition (IC50). The viability at 0.5 µM in series [9] amounted to 11.9%.

As for `CC1=C(CC(=O)O)c2cc(F)ccc2/C1=C\c1ccc([S+](C)[O-])cc1` (configuration not stated) [SULINDAC], the viability at 50 µM stood at 101% in series [1], 89.3% in series [3] and 87.3% in series [4]. The values for the Activity in series [6] and in series [7] were < 1% and 1.1 µM, respectively.

Consider `CSc1ccc(/C=C2/C(C)=C(CC(=O)OCCCOc3no[n+]([O-])c3S(=O)(=O)c3ccccc3)c3cc(F)ccc32)cc1`, for which the viability at 50 µM is 21.2% in series [1], 15.7% in series [3] and 34.9% in series [4]. Also, the IC50 in series [5] was found to be 48.6 µM.

With `CC1=C(CC(=O)OCCOCCOc2no[n+]([O-])c2S(=O)(=O)c2ccccc2)c2cc(F)ccc2/C1=C\c1ccc([S+](C)[O-])cc1` (configuration not stated), the viability at 50 µM in series [1], in series [3] and in series [4] was 0% each time. In series [5], this compound gave an IC50 of 26 µM.

Turning to `CSc1ccc(/C=C2/C(C)=C(CC(=O)Oc3cccc(Oc4no[n+]([O-])c4S(=O)(=O)c4ccccc4)c3)c3cc(F)ccc32)cc1`, the viability at 50 µM was 88.3% in series [1], 80.7% in series [3] and 81.1% in series [4].

With `CC1=C(CC(=O)Oc2cccc(Oc3no[n+]([O-])c3S(=O)(=O)c3ccccc3)c2)c2cc(F)ccc2/C1=C\c1ccc([S+](C)[O-])cc1` (configuration not stated), the figures for the viability at 50 µM in series [1], in series [3] and in [4] were 67.7%, 66.3% and 74%, respectively.

Take `CSc1ccc(/C=C2/C(C)=C(CC(=O)NCCNC(=O)/N=c3/c[n+](-c4ccccc4)[n-]o3)c3cc(F)ccc32)cc1`: the viability at 50 µM in series [1] worked out at 34.7%; in [3] it was 21.3%; in [4], 66.5%. Besides, the result in [2] was inactive.

`CSc1ccc(/C=C2/C(C)=C(CC(=O)OCC(CO[N+](=O)[O-])(CO[N+](=O)[O-])CO[N+](=O)[O-])c3cc(F)ccc32)cc1`: the viability at 50 µM in [1] was 101%; in series [3] it was 110%; in series [4], 88.3%.

In the case of `CC1=C(CC(=O)OCC(CO[N+](=O)[O-])(CO[N+](=O)[O-])CO[N+](=O)[O-])c2cc(F)ccc2/C1=C\c1ccc(S(C)(=O)=O)cc1`, the figures for the viability at 50 µM in series [1], in [3] and in series [4] were 84.5%, 95.3% and 101%, respectively.

As to `CSc1ccc(/C=C2/C(C)=C(CC(=O)OCCOCCOc3no[n+]([O-])c3S(=O)(=O)c3ccccc3)c3cc(F)ccc32)cc1`, the viability at 50 µM in series [1] worked out at 71%; in series [3], 50.8%; in [4] it was 55.2%.

`CC1=C(CC(=O)OCCOc2no[n+]([O-])c2S(=O)(=O)c2ccccc2)c2cc(F)ccc2/C1=C\c1ccc(S(C)(=O)=O)cc1`: the viability at 50 µM in series [1], in [3] and in series [4] was 0% each time.

On to `CC1=C(CC(=O)NCCOC(=O)/N=c2/c[n+](-c3ccccc3)[n-]o2)c2cc(F)ccc2/C1=C\c1ccc(S(C)(=O)=O)cc1`, for which the viability at 50 µM is 45.9% in series [1], 37.3% in series [3] and 76.5% in [4]. Moreover, the result in series [2] was inactive.

For the compound `CC1=C(CC(=O)OCCCCO)c2cc(F)ccc2/C1=C\c1ccc(S(C)(=O)=O)cc1`, the viability at 50 µM in series [1] came to 81.5%; in [3], 86.6%; in series [4], 87.4%.

`CC1=C(CC(=O)NCCOC(=O)/N=c2/c[n+](-c3ccccc3)[n-]o2)c2cc(F)ccc2/C1=C\c1ccc([S+](C)[O-])cc1` (configuration not stated): the viability at 50 µM in [1] worked out at 46.4%; in series [3] it was 41.4%; in series [4] it was 76.7%. In addition, the result in series [2] was inactive.

As to `CC1=C(CC(=O)OCCCCO)c2cc(F)ccc2/C1=C\c1ccc([S+](C)[O-])cc1` (configuration not stated), the viability at 50 µM was found to be 76.9% in [1], 96.5% in series [3] and 96.6% in series [4].

As to `CC1=C(CC(=O)OCCO[N+](=O)[O-])c2cc(F)ccc2/C1=C\c1ccc([S+](C)[O-])cc1` (configuration not stated), the viability at 50 µM in series [1] was 54.9%; in series [3] it was 35.5%; in series [4], 73%.

As for `CC1=C(CC(=O)OCCCOc2no[n+]([O-])c2S(=O)(=O)c2ccccc2)c2cc(F)ccc2/C1=C\c1ccc(S(C)(=O)=O)cc1`, the viability at 50 µM in [1], in series [3] and in [4] was 0% each time.

On to `CC1=C(CC(=O)OC/C=C\COc2no[n+]([O-])c2S(=O)(=O)c2ccccc2)c2cc(F)ccc2/C1=C\c1ccc([S+](C)[O-])cc1` (configuration not stated), for which the viability at 50 µM in series [1], in series [3] and in series [4] was 0% each time. Moreover, the values for the Activity in series [6] and in series [7] were 12.8% and 51.1 µM, respectively. The IC50 in series [5] was 12.1 µM. Besides, in series [8], the result was Active.

Take `CSc1ccc(/C=C2/C(C)=C(CC(=O)OCCCCCCOc3no[n+]([O-])c3S(=O)(=O)c3ccccc3)c3cc(F)ccc32)cc1`: the viability at 50 µM in series [1] amounted to 41.7%; in [3], 29.2%; in series [4], 57.2%.

On to `CC1=C(CC(=O)OCCCCCCO[N+](=O)[O-])c2cc(F)ccc2/C1=C\c1ccc(S(C)(=O)=O)cc1`, for which the results for the viability at 50 µM in series [1], in series [3] and in series [4] were 59%, 64% and 93.3%, respectively.

In the case of `CC1=C(CC(=O)/N=c2\c[n+](-c3ccccc3)[n-]o2)c2cc(F)ccc2/C1=C\c1ccc(S(C)(=O)=O)cc1`, the viability at 50 µM in [1] came out at 74.5%; in [3] it was 81.1%; in series [4] it was 108%.
